Consider seven compounds from ChEMBL document CHEMBL3217617 (Medchemcomm, 2012).

The nature of experiment [1]: Cytotoxicity against human SKBR3 cells by Alamar Blue assay. The experiment is classed as functional, cell-based. Particulars: SK-BR-3. (In general: Resazurin is reduced to fluorescent resorufin, in cell work by metabolically active cells.)
The subject of experiment [2] is A-431. Description: Cytotoxicity against human A431 cells by Alamar Blue assay. The experiment is classed as functional, cell-based.
The nature of experiment [3]: Inhibition of recombinant PKA (unknown origin) using poly-Glu-Tyr peptide as substrate. Details: species or system Homo sapiens.
Experiment [4] has as its target T1, Histone deacetylase 3 (Homo sapiens, UniProt O15379). In words: Inhibition of human recombinant HDAC3 expressed in Sf21 insect cells using Ac-NH-GGK(Ac)-AMC as substrate after 180 mins by fluorescence assay.
The subject of experiment [5] is SK-OV-3. In words: Cytotoxicity against human SKOV3 cells by Alamar Blue assay. The format is functional, cell-based.
For experiment [6], the target named is T2, Histone deacetylase 8 (Homo sapiens, UniProt Q9BY41).
T2 sequence (Q9BY41 whole entry): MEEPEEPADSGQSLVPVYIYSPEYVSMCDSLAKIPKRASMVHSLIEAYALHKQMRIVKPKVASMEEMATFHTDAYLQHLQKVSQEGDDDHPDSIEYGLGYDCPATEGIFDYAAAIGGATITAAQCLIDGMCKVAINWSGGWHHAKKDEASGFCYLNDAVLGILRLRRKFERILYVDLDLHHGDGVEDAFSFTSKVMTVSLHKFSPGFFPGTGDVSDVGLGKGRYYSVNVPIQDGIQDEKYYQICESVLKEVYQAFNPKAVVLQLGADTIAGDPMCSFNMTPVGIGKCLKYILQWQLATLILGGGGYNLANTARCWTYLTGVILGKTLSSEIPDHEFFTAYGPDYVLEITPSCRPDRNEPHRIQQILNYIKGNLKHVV
In words: Inhibition of human recombinant HDAC8 expressed in Sf21 insect cells using Ac-NH-GGK(Ac)-AMC as substrate after 180 mins by fluorescence assay.

The target of experiment [7] is T3, Protein deacetylase HDAC6 (Homo sapiens, UniProt Q9UBN7).
T3 sequence (Q9UBN7 whole entry): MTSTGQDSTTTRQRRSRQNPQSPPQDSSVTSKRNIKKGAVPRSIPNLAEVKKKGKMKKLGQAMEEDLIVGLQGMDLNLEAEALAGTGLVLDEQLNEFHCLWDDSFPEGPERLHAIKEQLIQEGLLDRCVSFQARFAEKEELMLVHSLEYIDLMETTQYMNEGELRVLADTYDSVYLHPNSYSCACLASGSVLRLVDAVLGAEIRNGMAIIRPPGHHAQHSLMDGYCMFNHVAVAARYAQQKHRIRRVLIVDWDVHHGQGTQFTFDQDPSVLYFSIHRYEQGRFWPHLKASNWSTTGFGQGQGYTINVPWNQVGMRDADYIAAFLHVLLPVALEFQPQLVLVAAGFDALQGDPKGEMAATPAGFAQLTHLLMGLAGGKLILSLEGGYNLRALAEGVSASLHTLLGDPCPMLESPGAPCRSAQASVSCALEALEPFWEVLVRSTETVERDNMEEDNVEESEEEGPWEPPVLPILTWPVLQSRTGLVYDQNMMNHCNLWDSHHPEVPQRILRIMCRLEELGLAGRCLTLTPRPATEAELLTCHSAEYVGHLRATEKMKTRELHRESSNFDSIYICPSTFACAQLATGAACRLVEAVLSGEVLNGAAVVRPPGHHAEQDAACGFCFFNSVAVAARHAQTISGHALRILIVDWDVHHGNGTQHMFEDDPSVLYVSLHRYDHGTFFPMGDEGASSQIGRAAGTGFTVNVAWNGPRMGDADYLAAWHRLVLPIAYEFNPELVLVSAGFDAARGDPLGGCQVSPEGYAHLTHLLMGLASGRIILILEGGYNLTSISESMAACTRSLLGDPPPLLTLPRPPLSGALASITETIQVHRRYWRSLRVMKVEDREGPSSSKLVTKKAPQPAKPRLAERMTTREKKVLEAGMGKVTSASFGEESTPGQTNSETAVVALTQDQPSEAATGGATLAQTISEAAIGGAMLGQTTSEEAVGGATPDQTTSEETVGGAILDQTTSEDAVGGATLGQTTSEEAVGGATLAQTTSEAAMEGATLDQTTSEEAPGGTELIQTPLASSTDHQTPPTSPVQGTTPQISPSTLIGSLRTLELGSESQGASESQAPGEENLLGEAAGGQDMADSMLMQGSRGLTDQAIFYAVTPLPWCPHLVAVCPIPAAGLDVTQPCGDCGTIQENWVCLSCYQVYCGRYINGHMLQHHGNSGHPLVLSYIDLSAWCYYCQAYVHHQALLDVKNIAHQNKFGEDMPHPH
Description: Inhibition of human recombinant HDAC6 expressed in human HEK293 cells using Ac-NH-GGK(Ac)-AMC as substrate after 180 mins by fluorescence assay.

Experiment [8] concerns the target Histone deacetylase. In words: Inhibition of HDAC in human HeLa cell nuclear extracts using Ac-NH-GGK(Ac)-AMC as substrate after 180 mins by fluorescence assay. The format is protein assay.
The subject of experiment [9] is HeLa. In words: Cytotoxicity against human HeLa cells by Alamar Blue assay. The format is functional, cell-based.
Experiment [10] has as its target Histone deacetylase 1 (Homo sapiens, UniProt Q13547). Description: Inhibition of human recombinant HDAC1 expressed in human HEK293 cells using Ac-NH-GGK(Ac)-AMC as substrate after 180 mins by fluorescence assay.
Experiment [11] deals with A549. Description: Cytotoxicity against human A549 cells by Alamar Blue assay. The format is functional, cell-based.
Experiment [12] can be described thus: Cytotoxicity against human CAL27 cells by Alamar Blue assay. The format is functional, cell-based. Particulars: CAL-27.
For experiment [13], the target named is Histone deacetylase. In words: Inhibition of HDAC in human HeLa cells using Boc-K(Ac)-AMC as substrate preincubated for 4 hrs before substrate addition measured after 3 hrs by fluorescence assay. The experiment is classed as cell-based.
Experiment [14] concerns the target Receptor tyrosine-protein kinase erbB-2 (Homo sapiens, UniProt P04626). In words: Inhibition of recombinant HER2 (unknown origin) using poly-Glu-Tyr peptide as substrate.
In experiment [15] the target is Histone deacetylase (Homo sapiens) (UniProt Q13547+O15379+Q9UBN7+Q92769+Q9UQL6+Q8WUI4+Q9BY41+Q96DB2+P56524+Q9UKV0+Q969S8). In words: Inhibition of HDAC in human HeLa cell nuclear extracts using Ac-NH-GGK(Ac)-AMC as substrate after 180 mins by fluorescence assay relative to control. The format is protein assay.
The target in experiment [16] is Platelet-derived growth factor receptor beta (Homo sapiens, UniProt P09619). In words: Inhibition of recombinant PDGFRbeta (unknown origin) using poly-Glu-Tyr peptide as substrate.
Platelet-derived growth factor receptor beta, sequence (P09619 whole entry): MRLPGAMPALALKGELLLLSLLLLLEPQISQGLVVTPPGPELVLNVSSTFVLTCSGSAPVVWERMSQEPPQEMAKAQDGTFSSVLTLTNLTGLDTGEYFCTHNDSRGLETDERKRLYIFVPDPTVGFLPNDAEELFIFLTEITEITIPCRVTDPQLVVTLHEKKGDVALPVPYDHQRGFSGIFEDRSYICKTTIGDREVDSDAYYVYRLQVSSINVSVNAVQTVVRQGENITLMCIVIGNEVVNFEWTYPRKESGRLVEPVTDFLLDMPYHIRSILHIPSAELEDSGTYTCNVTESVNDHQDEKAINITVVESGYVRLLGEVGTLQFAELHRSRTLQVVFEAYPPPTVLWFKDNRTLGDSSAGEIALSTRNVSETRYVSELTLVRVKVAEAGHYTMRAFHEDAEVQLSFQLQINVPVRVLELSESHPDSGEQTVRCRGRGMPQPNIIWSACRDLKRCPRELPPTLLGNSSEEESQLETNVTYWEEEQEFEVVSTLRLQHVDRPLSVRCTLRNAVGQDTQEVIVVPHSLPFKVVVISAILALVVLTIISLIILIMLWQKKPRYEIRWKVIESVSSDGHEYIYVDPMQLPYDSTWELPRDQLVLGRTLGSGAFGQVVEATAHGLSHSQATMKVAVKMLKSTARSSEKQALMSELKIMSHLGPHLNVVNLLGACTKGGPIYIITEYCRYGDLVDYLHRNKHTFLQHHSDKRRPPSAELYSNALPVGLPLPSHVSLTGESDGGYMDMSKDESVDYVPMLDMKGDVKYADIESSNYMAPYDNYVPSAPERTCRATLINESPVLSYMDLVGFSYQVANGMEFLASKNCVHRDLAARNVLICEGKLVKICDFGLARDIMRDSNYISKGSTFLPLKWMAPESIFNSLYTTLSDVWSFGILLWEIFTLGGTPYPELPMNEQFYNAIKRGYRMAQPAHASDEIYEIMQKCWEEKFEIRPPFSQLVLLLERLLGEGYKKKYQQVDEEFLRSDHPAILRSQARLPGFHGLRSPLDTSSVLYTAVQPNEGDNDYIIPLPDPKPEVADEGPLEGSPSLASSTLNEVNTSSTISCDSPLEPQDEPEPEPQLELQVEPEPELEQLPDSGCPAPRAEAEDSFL
Experiment [17] has as its target Tyrosine-protein kinase ABL1 (Homo sapiens, UniProt P00519). Description: Inhibition of recombinant Abl1 (unknown origin) using poly-Glu-Tyr peptide as substrate.
For experiment [18], the target named is Epidermal growth factor receptor (Homo sapiens, UniProt P00533). Description: Inhibition of recombinant EGFR (unknown origin) using poly-Glu-Tyr peptide as substrate.
Experiment [19] has as its target Cyclin-dependent kinase 2 (Homo sapiens, UniProt P24941). Description: Inhibition of recombinant CDK2 (unknown origin) using poly-Glu-Tyr peptide as substrate.
The target of experiment [20] is Insulin receptor (Homo sapiens, UniProt P06213). In words: Inhibition of recombinant InsR (unknown origin) using poly-Glu-Tyr peptide as substrate.
Insulin receptor, sequence (P06213 28-758 limits assumed): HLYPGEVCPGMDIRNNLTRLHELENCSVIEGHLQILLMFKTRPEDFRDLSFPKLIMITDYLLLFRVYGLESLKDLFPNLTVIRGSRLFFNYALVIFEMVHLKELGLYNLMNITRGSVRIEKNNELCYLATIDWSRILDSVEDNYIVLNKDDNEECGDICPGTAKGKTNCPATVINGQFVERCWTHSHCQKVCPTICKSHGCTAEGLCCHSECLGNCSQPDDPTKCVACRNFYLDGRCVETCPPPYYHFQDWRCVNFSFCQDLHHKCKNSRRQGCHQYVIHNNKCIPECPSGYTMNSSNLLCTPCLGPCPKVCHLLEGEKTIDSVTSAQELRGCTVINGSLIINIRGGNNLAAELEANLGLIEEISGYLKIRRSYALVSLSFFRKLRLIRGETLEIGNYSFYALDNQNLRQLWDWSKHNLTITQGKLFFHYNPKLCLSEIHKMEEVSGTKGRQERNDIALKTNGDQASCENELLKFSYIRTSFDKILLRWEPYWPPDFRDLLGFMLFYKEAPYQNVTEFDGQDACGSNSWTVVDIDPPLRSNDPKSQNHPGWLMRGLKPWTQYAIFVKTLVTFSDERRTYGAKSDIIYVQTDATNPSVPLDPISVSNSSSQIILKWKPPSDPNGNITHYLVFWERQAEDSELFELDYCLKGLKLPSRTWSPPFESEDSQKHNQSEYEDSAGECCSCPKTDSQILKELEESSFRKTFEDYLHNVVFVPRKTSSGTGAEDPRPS
Insulin receptor, sequence (P06213 763-1382 limits assumed): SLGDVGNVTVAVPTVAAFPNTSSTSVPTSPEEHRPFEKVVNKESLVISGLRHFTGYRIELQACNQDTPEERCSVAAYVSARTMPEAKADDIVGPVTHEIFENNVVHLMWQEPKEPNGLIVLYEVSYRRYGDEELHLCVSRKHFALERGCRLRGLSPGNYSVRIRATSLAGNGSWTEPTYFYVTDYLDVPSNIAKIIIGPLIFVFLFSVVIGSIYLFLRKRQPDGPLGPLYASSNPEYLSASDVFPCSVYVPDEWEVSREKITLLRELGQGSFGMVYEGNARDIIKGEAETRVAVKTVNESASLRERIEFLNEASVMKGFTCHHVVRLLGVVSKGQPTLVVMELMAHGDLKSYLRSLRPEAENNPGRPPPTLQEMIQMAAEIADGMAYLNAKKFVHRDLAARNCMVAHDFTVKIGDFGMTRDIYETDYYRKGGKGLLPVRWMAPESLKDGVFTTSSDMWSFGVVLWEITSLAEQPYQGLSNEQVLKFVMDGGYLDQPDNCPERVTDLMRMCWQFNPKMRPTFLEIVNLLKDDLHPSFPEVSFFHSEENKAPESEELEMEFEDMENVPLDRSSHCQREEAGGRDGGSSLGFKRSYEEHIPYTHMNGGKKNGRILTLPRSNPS
For experiment [21], the target named is Serine/threonine-protein kinase PLK1 (Homo sapiens, UniProt P53350). Description: Inhibition of recombinant Plk1 (unknown origin) using poly-Glu-Tyr peptide as substrate.
Serine/threonine-protein kinase PLK1, sequence (P53350 whole entry): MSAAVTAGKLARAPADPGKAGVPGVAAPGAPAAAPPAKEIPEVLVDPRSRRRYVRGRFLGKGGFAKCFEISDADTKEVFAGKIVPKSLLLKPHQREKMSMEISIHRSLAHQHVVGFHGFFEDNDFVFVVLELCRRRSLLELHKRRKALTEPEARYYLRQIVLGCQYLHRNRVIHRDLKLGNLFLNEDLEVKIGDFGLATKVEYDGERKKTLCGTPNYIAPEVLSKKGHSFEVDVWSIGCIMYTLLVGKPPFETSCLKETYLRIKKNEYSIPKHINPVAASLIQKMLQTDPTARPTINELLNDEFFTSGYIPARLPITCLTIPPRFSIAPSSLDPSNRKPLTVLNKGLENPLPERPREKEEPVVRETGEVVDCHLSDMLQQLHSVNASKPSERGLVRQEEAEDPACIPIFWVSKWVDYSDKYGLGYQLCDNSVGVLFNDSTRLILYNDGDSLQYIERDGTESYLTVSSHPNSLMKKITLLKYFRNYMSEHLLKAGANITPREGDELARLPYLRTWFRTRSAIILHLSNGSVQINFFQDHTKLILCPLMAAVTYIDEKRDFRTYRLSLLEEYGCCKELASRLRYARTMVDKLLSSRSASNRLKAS
Experiment [22] has as its target T1, Histone deacetylase 3. In words: Inhibition of human recombinant HDAC3 expressed in Sf21 insect cells using Ac-NH-GGK(Ac)-AMC as substrate after 180 mins by fluorescence assay relative to control.

As a reminder, the IC50 is the midpoint of a concentration-inhibition curve.

Receptor tyrosine-protein kinase erbB-2, sequence (P04626 whole entry): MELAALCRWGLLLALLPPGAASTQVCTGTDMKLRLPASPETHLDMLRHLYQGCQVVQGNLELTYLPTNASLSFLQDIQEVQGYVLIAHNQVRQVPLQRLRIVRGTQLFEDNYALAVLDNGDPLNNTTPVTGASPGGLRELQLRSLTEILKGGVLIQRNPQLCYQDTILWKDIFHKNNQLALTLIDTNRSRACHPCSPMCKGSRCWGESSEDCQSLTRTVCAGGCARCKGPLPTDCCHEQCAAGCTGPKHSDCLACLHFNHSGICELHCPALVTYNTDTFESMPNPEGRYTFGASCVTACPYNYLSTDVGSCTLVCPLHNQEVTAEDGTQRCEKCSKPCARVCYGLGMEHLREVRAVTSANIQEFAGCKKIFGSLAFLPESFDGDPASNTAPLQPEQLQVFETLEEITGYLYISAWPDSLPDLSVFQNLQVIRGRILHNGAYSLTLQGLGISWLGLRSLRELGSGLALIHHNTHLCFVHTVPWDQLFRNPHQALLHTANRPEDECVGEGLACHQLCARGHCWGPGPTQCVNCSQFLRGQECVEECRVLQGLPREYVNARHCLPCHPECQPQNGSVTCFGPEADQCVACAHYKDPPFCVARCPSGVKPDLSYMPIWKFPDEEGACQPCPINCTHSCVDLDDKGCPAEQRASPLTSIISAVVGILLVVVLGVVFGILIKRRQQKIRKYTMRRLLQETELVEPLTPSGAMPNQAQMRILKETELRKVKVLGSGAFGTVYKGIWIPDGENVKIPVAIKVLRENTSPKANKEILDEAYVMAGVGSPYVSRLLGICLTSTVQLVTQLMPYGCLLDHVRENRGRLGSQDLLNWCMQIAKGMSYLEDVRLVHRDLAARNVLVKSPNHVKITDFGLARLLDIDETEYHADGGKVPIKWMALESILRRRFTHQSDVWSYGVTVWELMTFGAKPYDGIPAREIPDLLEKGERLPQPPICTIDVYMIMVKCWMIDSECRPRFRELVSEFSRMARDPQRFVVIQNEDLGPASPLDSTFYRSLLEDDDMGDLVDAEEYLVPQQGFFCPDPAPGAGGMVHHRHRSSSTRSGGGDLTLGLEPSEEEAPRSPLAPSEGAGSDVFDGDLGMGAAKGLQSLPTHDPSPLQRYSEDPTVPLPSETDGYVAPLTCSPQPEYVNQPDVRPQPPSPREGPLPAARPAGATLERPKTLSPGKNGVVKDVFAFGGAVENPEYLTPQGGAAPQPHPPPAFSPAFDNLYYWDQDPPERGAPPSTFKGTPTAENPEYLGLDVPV
Histone deacetylase 1, sequence (Q13547 whole entry): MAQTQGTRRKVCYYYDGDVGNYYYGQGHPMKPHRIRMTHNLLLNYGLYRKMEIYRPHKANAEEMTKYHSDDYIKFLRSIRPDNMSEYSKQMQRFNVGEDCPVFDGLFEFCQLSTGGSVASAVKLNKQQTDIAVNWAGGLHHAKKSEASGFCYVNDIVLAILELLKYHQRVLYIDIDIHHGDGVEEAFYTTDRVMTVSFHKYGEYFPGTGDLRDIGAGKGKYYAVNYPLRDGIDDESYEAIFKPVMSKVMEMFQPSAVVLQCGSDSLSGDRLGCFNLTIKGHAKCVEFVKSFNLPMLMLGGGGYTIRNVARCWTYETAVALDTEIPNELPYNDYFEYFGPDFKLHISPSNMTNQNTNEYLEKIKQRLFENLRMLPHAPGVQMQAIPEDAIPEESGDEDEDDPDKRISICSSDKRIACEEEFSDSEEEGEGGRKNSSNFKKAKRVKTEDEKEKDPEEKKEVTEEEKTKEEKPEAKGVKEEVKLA

As for `C#Cc1cccc(Nc2ncnc3cc(OCCOC)c(OCCOC)cc23)c1` [ERLOTINIB], the half-maximal inhibitory concentration (IC50) in experiment [1] is 15 µM; in experiment [2], 2.5 µM; in experiment [3], more than 100 µM; in experiment [4] it was more than 32 µM; in [5] it was 31 µM; in experiment [6], more than 32 µM. Besides, the IC50 in experiment [7] is more than 32 µM; in [8] it was more than 32 µM; in [9], 8.3 µM; in experiment [10], more than 32 µM; in experiment [11] it was more than 50 µM; in experiment [12], 0.074 µM. In experiment [13], this compound returned an IC50 of more than 15.8 µM.

For `C#Cc1cccc(Nc2ncnc3ccc(OCc4ccc(C(=O)Nc5ccccc5N)cc4)cc23)c1`, the IC50 is 3.4 µM in experiment [1]; 0.066 µM in experiment [14]; 1.6 µM in experiment [2]; more than 100 µM in experiment [3]; 7.2 µM in experiment [16]; 0.55 µM in experiment [4]. Moreover, the IC50 was 5.1 µM in [5]; more than 32 µM in [6]; more than 32 µM in experiment [7]; 7 µM in experiment [17]; 0.2 µM in experiment [8]; 0.078 µM in experiment [18]. Further, the IC50 in experiment [19] turned out to be 13 µM; in experiment [9], 1.35 µM; in experiment [10] it was 0.041 µM; in experiment [11], 0.9 µM; in experiment [20], 36 µM; in experiment [12] it was 0.61 µM. The IC50 in [21] is more than 100 µM; in [13] it was 1.85 µM. For the same compound, the Imax in experiment [15] is 50%.

Consider `C#Cc1cccc(Nc2ncnc3ccc(S(=O)(=O)n4ccc(/C=C/C(=O)NO)c4)cc23)c1`, for which the IC50 in experiment [1] is 0.19 µM; in experiment [14] it was 3.4 µM; in experiment [2] it was 0.26 µM; in experiment [3] it was more than 100 µM; in experiment [16], 70 µM; in experiment [4], 0.015 µM. Also, the IC50 in experiment [5] was 0.56 µM; in [6] it was 0.59 µM; in experiment [7], 0.0073 µM; in experiment [17], 27 µM; in experiment [8] it was 0.0064 µM; in experiment [18] it was 1.2 µM. Also, the IC50 in experiment [19] was more than 100 µM; in [9], 0.5 µM; in experiment [10], 0.0065 µM; in experiment [11] it was 0.24 µM; in [20] it was 65 µM; in [12], 0.16 µM. For the same compound, the figures for the IC50 in [21] and in [13] were more than 100 µM and 0.034 µM, respectively.

For the compound `C#Cc1cccc(Nc2ncnc3ccc(NC(=O)c4ccc(C(=O)Nc5ccccc5N)cc4)cc23)c1`, the IC50 in experiment [1] is more than 50 µM; in experiment [2] it was more than 16 µM; in experiment [4], 0.61 µM; in [5], more than 50 µM; in experiment [6], more than 32 µM; in experiment [7], more than 32 µM. For the same compound, the IC50 in experiment [8] is more than 32 µM; in experiment [9], more than 50 µM; in [10], 10.5 µM; in [11], more than 50 µM; in experiment [12] it was 0.33 µM; in experiment [13], more than 15.8 µM.

Take `Nc1ccccc1NC(=O)c1ccc(COc2ccc3ncnc(Nc4cccc(Br)c4)c3c2)cc1`: the IC50 in experiment [1] is 5.1 µM; in experiment [14], 0.039 µM; in experiment [2], 1.7 µM; in experiment [3] it was more than 100 µM; in [16] it was 28 µM; in [4] it was 0.51 µM. Moreover, the IC50 in experiment [5] was 6.3 µM; in [6], more than 32 µM; in experiment [7], more than 32 µM; in [17] it was 11 µM; in experiment [8], 0.25 µM; in experiment [18], 0.033 µM. In addition, the IC50 in experiment [19] was determined as 22 µM; in experiment [9], 1.45 µM; in experiment [10], 0.074 µM; in experiment [11], 1.3 µM; in experiment [20] it was 150 µM; in [12], 0.62 µM. For the same compound, the IC50 is more than 100 µM in experiment [21] and 2.46 µM in [13]. Besides, the Imax in experiment [22] was 75%.

For the compound `C#Cc1cccc(Nc2ncnc3cc(NC(=O)c4ccc(C(=O)Nc5ccccc5N)nc4)ccc23)c1`, the IC50 in experiment [1] is more than 50 µM; in experiment [2] it was 0.79 µM; in [4] it was 0.32 µM; in experiment [5] it was more than 50 µM; in experiment [6], more than 32 µM; in [7] it was more than 32 µM. The IC50 in experiment [8] was 0.51 µM; in experiment [9], 1.5 µM; in experiment [10], 5.6 µM; in [11], 2.1 µM; in [12] it was 0.45 µM; in experiment [13], more than 5.01 µM. In addition, the Imax in experiment [15] was 30%.

Turning to `C#Cc1cccc(Nc2ncnc3ccc(NC(=O)c4ccc(C(=O)Nc5ccccc5N)s4)cc23)c1`, the IC50 in [1] was more than 50 µM; in [2] it was more than 16 µM; in [4], 0.92 µM; in experiment [5], more than 50 µM; in experiment [6], more than 32 µM; in [7], more than 32 µM. Besides, the IC50 in experiment [8] was more than 32 µM; in experiment [9], more than 50 µM; in [10], 8.6 µM; in [11], more than 50 µM; in experiment [12] it was 0.41 µM; in experiment [13] it was more than 15.8 µM.
